# In US20220339143A1, “TAK-925 FOR USE IN TREATING NARCOLEPSY” (Takeda Pharmaceutical Company Limited, priority 2019, published 2022):
# System: patients with narcolepsy type 1 (NT1)
# Assay: Subjective daytime sleepiness as assessed by Karolinska Sleepiness Scale (KSS), single dose (Cohorts 5, 6, 7)
# Format: in vivo, human
# Procedure: Daytime sleepiness as assessed by the Karolinska Sleepiness Scale (KSS).
# Daytime sleepiness as assessed by KSS at predose and hourly until 11 hours after the start of infusion is presented in Table 13 as summary, in Table 14 as ANOVA and in Table 15 as ANOVA of change from baseline.
# [1] = Cmpd A 5 mg (N = 6), 9 hr after start of infusion
# [2] = Cmpd A 5 mg (N = 6), 10 hr after start of infusion
# [3] = Cmpd A 5 mg (N = 6), 11 hr after start of infusion
# [4] = Cmpd A 11.2 mg (N = 4), 1 hr after start of infusion
# [5] = Cmpd A 11.2 mg (N = 4), 2 hr after start of infusion
# [6] = Cmpd A 11.2 mg (N = 4), 3 hr after start of infusion
# [7] = Cmpd A 11.2 mg (N = 4), 4 hr after start of infusion
# [8] = Cmpd A 11.2 mg (N = 4), 5 hr after start of infusion
# [9] = Cmpd A 11.2 mg (N = 4), 6 hr after start of infusion
# [10] = Cmpd A 11.2 mg (N = 4), 7 hr after start of infusion
# [11] = Cmpd A 11.2 mg (N = 4), 8 hr after start of infusion
# [12] = Cmpd A 11.2 mg (N = 4), 9 hr after start of infusion
# [13] = Cmpd A 11.2 mg (N = 4), 10 hr after start of infusion
# [14] = Cmpd A 11.2 mg (N = 4), 11 hr after start of infusion
# [15] = Cmpd A 44.8 mg (N = 4), 1 hr after start of infusion
# [16] = Cmpd A 44.8 mg (N = 4), 2 hr after start of infusion
# [17] = Cmpd A 44.8 mg (N = 4), 3 hr after start of infusion
# [18] = Cmpd A 44.8 mg (N = 4), 4 hr after start of infusion
# [19] = Cmpd A 44.8 mg (N = 4), 5 hr after start of infusion
# [20] = Cmpd A 44.8 mg (N = 4), 6 hr after start of infusion
# [21] = Cmpd A 44.8 mg (N = 4), 7 hr after start of infusion
# [22] = Cmpd A 44.8 mg (N = 4), 8 hr after start of infusion
# [23] = Cmpd A 44.8 mg (N = 4), 9 hr after start of infusion
# [24] = Cmpd A 44.8 mg (N = 4), 10 hr after start of infusion
# [25] = Cmpd A 44.8 mg (N = 4), 11 hr after start of infusion
smiles,measurement,setting,value
"COC(=O)N1CCC[C@H](NS(C)(=O)=O)[C@@H]1CO[C@H]1CC[C@@H](c2ccccc2)CC1 [Compound A, methyl (2R,3S)-3-((methylsulfonyl)amino)-2-(((cis-4-phenylcyclohexyl)oxy)methyl)piperidine-1-carboxylate]","KSS Observed Value at Visit, Median","Cmpd A 5 mg (N = 6), 8 hr after start of infusion",3.0
same,"KSS Change from Baseline, Mean",[1],−2.5
same,"KSS Change from Baseline, Median",[1],−2.5
same,"KSS Observed Value at Visit, Mean",[1],2.5
same,"KSS Observed Value at Visit, Median",[1],2.5
same,"KSS Change from Baseline, Mean",[2],−2.3
same,"KSS Change from Baseline, Median",[2],−2.5
same,"KSS Observed Value at Visit, Mean",[2],2.7
same,"KSS Observed Value at Visit, Median",[2],2.0
same,"KSS Change from Baseline, Mean",[3],−1.7
same,"KSS Change from Baseline, Median",[3],−1.5
same,"KSS Observed Value at Visit, Mean",[3],3.3
same,"KSS Observed Value at Visit, Median",[3],3.0
same,"KSS Change from Baseline, Mean",[4],−2.0
same,"KSS Change from Baseline, Median",[4],−1.0
same,"KSS Observed Value at Visit, Mean",[4],1.8
same,"KSS Observed Value at Visit, Median",[4],1.5
same,"KSS Change from Baseline, Mean",[5],−1.5
same,"KSS Change from Baseline, Median",[5],−1.0
same,"KSS Observed Value at Visit, Mean",[5],2.3
same,"KSS Observed Value at Visit, Median",[5],2.0
same,"KSS Change from Baseline, Mean",[6],−1.3
same,"KSS Change from Baseline, Median",[6],−1.0
same,"KSS Observed Value at Visit, Mean",[6],2.5
same,"KSS Observed Value at Visit, Median",[6],3.0
same,"KSS Change from Baseline, Mean",[7],−1.8
same,"KSS Change from Baseline, Median",[7],−1.0
same,"KSS Observed Value at Visit, Mean",[7],2.0
same,"KSS Observed Value at Visit, Median",[7],2.0
same,"KSS Change from Baseline, Mean",[8],−1.8
same,"KSS Change from Baseline, Median",[8],−1.0
same,"KSS Observed Value at Visit, Mean",[8],2.0
same,"KSS Observed Value at Visit, Median",[8],2.0
same,"KSS Change from Baseline, Mean",[9],−1.5
same,"KSS Change from Baseline, Median",[9],−0.5
same,"KSS Observed Value at Visit, Mean",[9],2.3
same,"KSS Observed Value at Visit, Median",[9],2.0
same,"KSS Change from Baseline, Mean",[10],−1.0
same,"KSS Change from Baseline, Median",[10],−0.5
same,"KSS Observed Value at Visit, Mean",[10],2.8
same,"KSS Observed Value at Visit, Median",[10],3.0
same,"KSS Change from Baseline, Mean",[11],−1.5
same,"KSS Change from Baseline, Median",[11],−1.0
same,"KSS Observed Value at Visit, Mean",[11],2.3
same,"KSS Observed Value at Visit, Median",[11],2.5
same,"KSS Change from Baseline, Mean",[12],−1.3
same,"KSS Change from Baseline, Median",[12],−0.5
same,"KSS Observed Value at Visit, Mean",[12],2.5
same,"KSS Observed Value at Visit, Median",[12],2.5
same,"KSS Change from Baseline, Mean",[13],1.3
same,"KSS Change from Baseline, Median",[13],2.5
same,"KSS Observed Value at Visit, Mean",[13],5.0
same,"KSS Observed Value at Visit, Median",[13],5.5
same,"KSS Change from Baseline, Mean",[14],0.5
same,"KSS Change from Baseline, Median",[14],1.0
same,"KSS Observed Value at Visit, Mean",[14],4.3
same,"KSS Observed Value at Visit, Median",[14],4.0
same,"KSS Change from Baseline, Mean",[15],−1.5
same,"KSS Change from Baseline, Median",[15],−1.5
same,"KSS Observed Value at Visit, Mean",[15],1.3
same,"KSS Observed Value at Visit, Median",[15],1.0
same,"KSS Change from Baseline, Mean",[16],−1.5
same,"KSS Change from Baseline, Median",[16],−2.0
same,"KSS Observed Value at Visit, Mean",[16],1.3
same,"KSS Observed Value at Visit, Median",[16],1.0
same,"KSS Change from Baseline, Mean",[17],−1.0
same,"KSS Change from Baseline, Median",[17],−1.0
same,"KSS Observed Value at Visit, Mean",[17],1.8
same,"KSS Observed Value at Visit, Median",[17],1.5
same,"KSS Change from Baseline, Mean",[18],−1.0
same,"KSS Change from Baseline, Median",[18],−1.0
same,"KSS Observed Value at Visit, Mean",[18],1.8
same,"KSS Observed Value at Visit, Median",[18],1.5
same,"KSS Change from Baseline, Mean",[19],−1.5
same,"KSS Change from Baseline, Median",[19],−1.5
same,"KSS Observed Value at Visit, Mean",[19],1.3
same,"KSS Observed Value at Visit, Median",[19],1.0
same,"KSS Change from Baseline, Mean",[20],−1.3
same,"KSS Change from Baseline, Median",[20],−1.0
same,"KSS Observed Value at Visit, Mean",[20],1.5
same,"KSS Observed Value at Visit, Median",[20],1.5
same,"KSS Change from Baseline, Mean",[21],−1.3
same,"KSS Change from Baseline, Median",[21],−1.0
same,"KSS Observed Value at Visit, Mean",[21],1.5
same,"KSS Observed Value at Visit, Median",[21],1.5
same,"KSS Change from Baseline, Mean",[22],−0.8
same,"KSS Change from Baseline, Median",[22],−1.0
same,"KSS Observed Value at Visit, Mean",[22],2.0
same,"KSS Observed Value at Visit, Median",[22],2.0
same,"KSS Change from Baseline, Mean",[23],−1.3
same,"KSS Change from Baseline, Median",[23],−1.0
same,"KSS Observed Value at Visit, Mean",[23],1.5
same,"KSS Observed Value at Visit, Median",[23],1.0
same,"KSS Change from Baseline, Mean",[24],−1.5
same,"KSS Change from Baseline, Median",[24],−1.5
same,"KSS Observed Value at Visit, Mean",[24],1.3
same,"KSS Observed Value at Visit, Median",[24],1.0
same,"KSS Change from Baseline, Mean",[25],−1.3
same,"KSS Change from Baseline, Median",[25],−1.0
same,"KSS Observed Value at Visit, Mean",[25],1.5
same,"KSS Observed Value at Visit, Median",[25],1.5
same,KSS ratings vs pooled placebo group,all time points over 9 hour infusion period,lower (greater alertness)
same,mean reduction in KSS from baseline vs placebo,"single dose, NT1",greater for Compound A vs placebo
